pIC50: −log10 of the molar value. Active and inactive are the calls of the source. The calls are words filed in the database; no cut-off is given here.
Experiments:
Mus musculus [1] = test: Anti-inflammatory activity against DSS-induced acute colitis C57BL/6J mouse model assessed as decrease in goblet cells in colon at 10 to 20 mg/kg, po measured for 7 days; format: functional, organism-based; conditions: dose 10-20 mg/kg, time 7.0 day
[2] = Cytotoxicity against mouse RAW264.7 cells assessed as reduction in cell viability at 20 uM incubated for 24 hrs in absence of LPS by MTT assay; format: toxicity, cell-based
[3] = Toxicity in C57BL/6 mouse assessed as body weight loss at 20 mg/kg, po measured for 7 days; format: organism-based; conditions: in vivo, 168 h, time 7 day
RAW264.7 [4] = test: Anti-inflammatory activity against LPS-stimulated mouse RAW264.7 cells assessed as downregulation of LPS-induced COX-2 expression at 0.5 to 2 uM preincubated with compound for 1 hr followed by LPS stimulation and measured after 24 hrs by Western blot analysis; format: functional, cell-based; conditions: dose 0.5-2 µM, time 25.0 hrs
[5] = Acute toxicity in male C57BL/6 mouse assessed as effect on fur laxity at 1000 to 2000 mg/kg, po measured for 14 days; format: organism-based; conditions: in vivo, 336 h, dose 1000-2000 mg/kg, time 14 day
RAW264.7 [6] = test: Anti-inflammatory activity against LPS-stimulated mouse RAW264.7 cells assessed as reduction in LPS-induced COX-2 level preincubated with compound for 1 hr followed by LPS stimulation and measured after 24 hrs by Western blot analysis; format: functional, cell-based; conditions: dose 0.5-2 µM, time 25.0 hrs
RAW264.7 [7] = test: Anti-inflammatory activity against LPS-stimulated mouse RAW264.7 cells assessed as downregulation of LPS-induced iNOS expression at 0.5 to 2 uM preincubated with compound for 1 hr followed by LPS stimulation and measured after 24 hrs by Western blot analysis; format: functional, cell-based; conditions: dose 0.5-2 µM, time 25.0 hrs
[8] = Acute toxicity in C57BL/6 mouse assessed as spleen damage at 1000 mg/kg, po measured for 14 days; format: organism-based; conditions: in vivo, 336 h, time 14 day
Mus musculus [9] = test: Anti-inflammatory activity against DSS-induced acute colitis C57BL/6J mouse model assessed as reduction in IL-6 level in colon at 10 to 20 mg/kg, po measured for 7 days by ELISA analysis; format: functional, organism-based; conditions: dose 10-20 mg/kg, time 7.0 day
[10] = Acute toxicity in female C57BL/6 mouse assessed as effect on body weight loss at 1000 to 2000 mg/kg, po measured for 14 days; format: organism-based; conditions: in vivo, 336 h, dose 1000-2000 mg/kg, time 14 day
Mus musculus [11] = test: Anti-inflammatory activity against DSS-induced acute colitis C57BL/6J mouse model assessed as decrease in neutrophil infiltration in colon at 10 to 20 mg/kg, po measured for 7 days; format: functional, organism-based; conditions: dose 10-20 mg/kg, time 7.0 day
[12] = Acute toxicity in female C57BL/6 mouse assessed as effect on body weight gain at 1000 to 2000 mg/kg, po measured for 14 days; format: organism-based; conditions: in vivo, 336 h, dose 1000-2000 mg/kg, time 14 day
[13] = Acute toxicity in male C57BL/6 mouse assessed as lethargy at 1000 to 2000 mg/kg, po measured for 14 days; format: organism-based; conditions: in vivo, 336 h, dose 1000-2000 mg/kg, time 14 day
RAW264.7 [14] = test: Anti-inflammatory activity in LPS-stimulated mouse RAW264.7 cells assessed as inhibition of ERK phosphorylation preincubated with compound for 1 hr followed by LPS stimulation and measured after 30 mins by Western blot analysis; format: functional, cell-based; conditions: dose 0.5-2 µM, time 1.5 hrs
RAW264.7 [15] = test: Anti-inflammatory activity in LPS-stimulated mouse RAW264.7 cells assessed as inhibition of JNK phosphorylation preincubated with compound for 1 hr followed by LPS stimulation and measured after 30 mins by Western blot analysis; format: functional, cell-based; conditions: dose 0.5-2 µM, time 1.5 hrs
RAW264.7 [16] = test: Anti-inflammatory activity against LPS-stimulated mouse RAW264.7 cells assessed as reduction in LPS-induced iNOS level preincubated with compound for 1 hr followed by LPS stimulation and measured after 24 hrs by Western blot analysis; format: functional, cell-based; conditions: dose 0.5-2 µM, time 25.0 hrs
[17] = Acute toxicity in female C57BL/6 mouse assessed as hyperactivity at 1000 to 2000 mg/kg, po measured for 14 days; format: organism-based; conditions: in vivo, 336 h, dose 1000-2000 mg/kg, time 14 day
[18] = Acute toxicity in male C57BL/6 mouse assessed as anorexia at 1000 to 2000 mg/kg, po measured for 14 days; format: organism-based; conditions: in vivo, 336 h, dose 1000-2000 mg/kg, time 14 day
RAW264.7 [19] = test: Anti-inflammatory activity in mouse RAW264.7 cells assessed as inhibition of LPS-induced NO production incubated pretreated with compound for 1 hr followed by LPS-induction and measured after 24 hrs by Griess reagent based assay; format: functional, cell-based
RAW264.7 [20] = test: Anti-inflammatory activity in LPS-stimulated mouse RAW264.7 cells assessed as reduction in JNK level at 0.5 to 2 uM preincubated with compound for 1 hr followed by LPS stimulation and measured after 30 mins by Western blot analysis; format: functional, cell-based; conditions: dose 0.5-2 µM, time 1.5 hrs
RAW264.7 [21] = test: Anti-inflammatory activity in LPS-stimulated mouse RAW264.7 cells assessed as reduction in ERK level at 0.5 to 2 uM preincubated with compound for 1 hr followed by LPS stimulation and measured after 30 mins by Western blot analysis; format: functional, cell-based; conditions: dose 0.5-2 µM, time 1.5 hrs
Mus musculus [22] = test: Anti-inflammatory activity against DSS-induced acute colitis C57BL/6J mouse model assessed as disappearance of crypt foci in colon at 10 to 20 mg/kg, po measured for 7 days; format: functional, organism-based; conditions: dose 10-20 mg/kg, time 7.0 day
[23] = Acute toxicity in C57BL/6 mouse assessed as liver damage at 1000 mg/kg, po measured for 14 days; format: organism-based; conditions: in vivo, 336 h, time 14 day
[24] = Cytotoxicity against mouse RAW264.7 cells assessed as reduction in cell viability at 20 uM incubated for 24 hrs in presence of LPS by MTT assay; format: toxicity, cell-based
Mus musculus [25] = test: Anti-inflammatory activity against DSS-induced acute colitis C57BL/6J mouse model assessed as reduction in TNF-alpha level in colon at 10 to 20 mg/kg, po measured for 7 days by ELISA analysis; format: functional, organism-based; conditions: dose 10-20 mg/kg, time 7.0 day
RAW264.7 [26] = test: Anti-inflammatory activity in LPS-stimulated mouse RAW264.7 cells assessed as inhibition of IkappaB phosphorylation at 0.5 to 2 uM preincubated with compound for 1 hr followed by LPS stimulation and measured after 30 mins by Western blot analysis; format: functional, cell-based; conditions: dose 0.5-2 µM, time 1.5 hrs
Mus musculus [27] = test: Anti-inflammatory activity against DSS-induced acute colitis C57BL/6J mouse model assessed as decrease in colon length at 10 to 20 mg/kg, po measured for 7 days; format: functional, organism-based; conditions: dose 10-20 mg/kg, time 7.0 day
[28] = Acute toxicity in female C57BL/6 mouse assessed as lethargy at 1000 to 2000 mg/kg, po measured for 14 days; format: organism-based; conditions: in vivo, 336 h, dose 1000-2000 mg/kg, time 14 day
[29] = Acute toxicity in male C57BL/6 mouse assessed as effect on body weight loss at 1000 to 2000 mg/kg, po measured for 14 days; format: organism-based; conditions: in vivo, 336 h, dose 1000-2000 mg/kg, time 14 day
[30] = Acute toxicity in male C57BL/6 mouse assessed as effect on body weight gain at 1000 to 2000 mg/kg, po measured for 14 days; format: organism-based; conditions: in vivo, 336 h, dose 1000-2000 mg/kg, time 14 day
[31] = Acute toxicity in C57BL/6 mouse assessed as heart damage at 1000 mg/kg, po measured for 14 days; format: organism-based; conditions: in vivo, 336 h, time 14 day
RAW264.7 [32] = test: Anti-inflammatory activity in mouse RAW264.7 cells assessed as inhibition of LPS-induced NO production at 10 uM incubated pretreated with compound for 1 hr followed by LPS-induction and measured after 24 hrs by Griess reagent based assay relative to control; format: functional; conditions: time 25 hrs
[33] = Acute toxicity in male C57BL/6 mouse assessed as hyperactivity at 1000 to 2000 mg/kg, po measured for 14 days; format: organism-based; conditions: in vivo, 336 h, dose 1000-2000 mg/kg, time 14 day
RAW264.7 [34] = test: Anti-inflammatory activity in LPS-stimulated mouse RAW264.7 cells assessed as inhibition of p65 phosphorylation at 0.5 to 2 uM preincubated with compound for 1 hr followed by LPS stimulation and measured after 30 mins by Western blot analysis; format: functional, cell-based; conditions: dose 0.5-2 µM, time 1.5 hrs

Question: For `C=CCOc1ccc(/C=C/c2cc(OC)cc(OC)c2-c2cnnn2C(=O)NCCCl)cc1`, which Activity (Mus musculus [1]) is on record?
Answer: The Activity was “Active”.

Question: What about the IC50 at 24 h [2] of the same compound?
Answer: The IC50 at 24 h was over 50 µM.

Question: And the Activity [3]?
Answer: Its Activity is “Toxic”.

Question: And the Activity (RAW264.7 [4])?
Answer: Its Activity is “Active”.

Question: What about the Activity [5] of the same compound?
Answer: The Activity was “Non-Toxic”.

Question: What about the Activity (RAW264.7 [6]) of the same compound?
Answer: Its Activity is “Dose-Dependent Effect”.

Question: What about the Activity (RAW264.7 [7]) of the same compound?
Answer: Its Activity is “Active”.

Question: What about the Activity [8] of the same compound?
Answer: The Activity was “Non-Toxic”.

Question: And the Activity (Mus musculus [9])?
Answer: Its Activity is “Active”.

Question: What about the Activity [10] of the same compound?
Answer: Its Activity is “Non-Toxic”.

Question: And the Activity (Mus musculus [11])?
Answer: The Activity was “Active”.

Question: And the Activity [12]?
Answer: Its Activity is “Non-Toxic”.

Question: And the Activity [13]?
Answer: Its Activity is “Non-Toxic”.

Question: What about the Activity (RAW264.7 [14]) of the same compound?
Answer: Its Activity is “Dose-Dependent Effect”.

Question: What about the Activity (RAW264.7 [15]) of the same compound?
Answer: Its Activity is “Dose-Dependent Effect”.

Question: What about the Activity (RAW264.7 [16]) of the same compound?
Answer: The Activity was “Dose-Dependent Effect”.

Question: And the Activity [17]?
Answer: Its Activity is “Non-Toxic”.

Question: And the Activity [18]?
Answer: The Activity was “Non-Toxic”.

Question: And the pIC50 (RAW264.7 [19])?
Answer: The pIC50 was 6.22.

Question: What about the Activity (RAW264.7 [20]) of the same compound?
Answer: Its Activity is “Active”.

Question: And the Activity (RAW264.7 [21])?
Answer: The Activity was “Active”.

Question: What about the Activity (Mus musculus [22]) of the same compound?
Answer: Its Activity is “Active”.

Question: What about the Activity [23] of the same compound?
Answer: Its Activity is “Non-Toxic”.

Question: And the IC50 at 24 h [24]?
Answer: Its IC50 at 24 h is over 50 µM.

Question: What about the Activity (Mus musculus [25]) of the same compound?
Answer: The Activity was “Active”.

Question: And the Activity (RAW264.7 [26])?
Answer: The Activity was “Active”.

Question: What about the Activity (Mus musculus [27]) of the same compound?
Answer: Its Activity is “Active”.

Question: And the Activity [28]?
Answer: Its Activity is “Non-Toxic”.

Question: What about the Activity [29] of the same compound?
Answer: Its Activity is “Non-Toxic”.

Question: And the Activity [30]?
Answer: The Activity was “Non-Toxic”.

Question: What about the Activity [31] of the same compound?
Answer: Its Activity is “Non-Toxic”.

Question: And the inhibition at 10 µM (RAW264.7 [32])?
Answer: Its inhibition at 10 µM is 98%.

Question: And the Activity [33]?
Answer: The Activity was “Non-Toxic”.

Question: What about the Activity (RAW264.7 [34]) of the same compound?
Answer: The Activity was “Active”.
